Source: US9023789B2, “Amylin analogs and pharmaceutical compositions thereof” (Novo Nordisk A/S, priority 2012, dated 2015)
≈ marks a conversion by molar mass, not a printed value. Where two headings read alike, the source gives them in different places. Numbered stars: 1 amine (or outer) side, 2 acyl side, 3 side chain; on linkers, the order of the positions; unused ones are H or OH. Bridge positions count the residues as written; N and C are the ends. Side chains are listed from the residue outwards. Peptide text beside a SMILES is read from it. * marks the point of attachment. C20 diacid = O=C(O)CCCCCCCCCCCCCCCCCCC(=O)*; γGlu = O=C(O)[C@H](CCC(=O)[*:2])N[*:1]

Assays:
[1] = target: T1, human calcitonin (a) receptor in BHK570 cells (Homo sapiens, UniProt P30988); assay: ASSAY (II)a functional assay, human calcitonin receptor (CRE luciferase); format: cell-based; settings: read-out: hCTR funct. EC50
T1 construct: expressed in transfected cells
T1 sequence (P30988 25-474): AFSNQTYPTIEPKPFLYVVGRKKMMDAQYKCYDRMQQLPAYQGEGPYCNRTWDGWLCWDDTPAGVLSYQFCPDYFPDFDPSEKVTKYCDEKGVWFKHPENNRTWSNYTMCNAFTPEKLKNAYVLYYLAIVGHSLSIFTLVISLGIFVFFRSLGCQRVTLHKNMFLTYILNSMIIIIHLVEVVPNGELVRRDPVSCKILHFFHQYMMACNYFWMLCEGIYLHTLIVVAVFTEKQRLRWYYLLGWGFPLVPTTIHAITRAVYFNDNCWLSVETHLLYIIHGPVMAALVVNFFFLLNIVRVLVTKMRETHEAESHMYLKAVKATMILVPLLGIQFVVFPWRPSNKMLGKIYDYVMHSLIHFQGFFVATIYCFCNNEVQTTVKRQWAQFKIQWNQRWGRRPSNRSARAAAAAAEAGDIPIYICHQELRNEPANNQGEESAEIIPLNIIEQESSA
Outline: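 Readout is luminescence from a cAMP-responsive CRE-luc reporter, developed with LucLite for 30 min at room temperature. Cells were treated for 3 h at 37 °C in 10% FBS/DMEM buffered with 10 mM Hepes (pH 7.4).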

[2] = ASSAY (IV) determination of solubility; format: physicochemical
Outline: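 Samples of polypeptide, prepared from a water stock at […] and diluted 1:1 into 100 mM buffers spanning pH 3.0 to 8.0, stood 18 hours at room temperature. Polypeptide concentration was then determined by UPLC following centrifugation.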

[3] = target: T2, human amylin receptor (membranes from Amylin 3(a)/CRE-luc cells) (Homo sapiens, UniProt O60896+P30988); assay: ASSAY (V) binding to the human amylin receptor (SPA, 125I-rat amylin); settings: for IC50: Table 4, read-out: hAmylin-R bind IC50;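 on all read-outs here: competition binding of cell membranes (35 ng/µL) mixed with SPA beads in 384-well plates at 40 µL total volume, read by scintillation counting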
T2 construct: expressed in transfected cells
T2 sequence (P30988 25-474): T1 sequence (P30988 25-474)
T2 sequence (O60896 24-148 partner): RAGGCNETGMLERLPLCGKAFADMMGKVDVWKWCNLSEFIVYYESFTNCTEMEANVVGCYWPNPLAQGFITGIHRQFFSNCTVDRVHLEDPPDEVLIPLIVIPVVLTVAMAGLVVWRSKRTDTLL

[4] = target: T3, rat amylin receptor (rat calcitonin receptor + rat RAMP 3) (Rattus norvegicus, UniProt P32214+Q9JJ73); assay: ASSAY (VI) binding to the rat amylin receptor; settings: for IC50: binding to rat amylin receptor, read-out: rAmylin-R bind IC50
T3 construct: expressed in transfected cells; host or cells: BHK tk'ts 13 (transient, FuGENE 6), membranes
T3 sequence (P32214 25-479 isoform P32214-2 limits assumed): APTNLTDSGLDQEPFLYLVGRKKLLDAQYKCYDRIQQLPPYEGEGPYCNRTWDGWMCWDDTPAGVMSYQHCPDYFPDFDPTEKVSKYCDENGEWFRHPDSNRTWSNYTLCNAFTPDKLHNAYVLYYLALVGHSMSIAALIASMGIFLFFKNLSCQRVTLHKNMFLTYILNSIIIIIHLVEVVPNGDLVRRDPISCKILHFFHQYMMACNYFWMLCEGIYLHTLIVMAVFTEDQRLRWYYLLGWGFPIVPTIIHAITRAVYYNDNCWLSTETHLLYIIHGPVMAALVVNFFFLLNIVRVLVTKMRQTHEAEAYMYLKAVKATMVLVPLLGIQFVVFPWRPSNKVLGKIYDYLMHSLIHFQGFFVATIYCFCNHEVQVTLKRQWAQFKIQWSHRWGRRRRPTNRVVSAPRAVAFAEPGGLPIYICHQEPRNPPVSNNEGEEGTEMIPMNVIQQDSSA
T3 sequence (Q9JJ73 23-147 partner): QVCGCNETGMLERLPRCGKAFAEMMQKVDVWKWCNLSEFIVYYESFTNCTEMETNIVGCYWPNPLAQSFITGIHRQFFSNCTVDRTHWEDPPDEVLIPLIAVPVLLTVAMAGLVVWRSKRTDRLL
Outline: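 Membranes for this rat amylin receptor binding assay came from BHK tk′ts 13 cells. The cells were transiently transfected with rat calcitonin receptor using the FuGENE® 6 reagent from Roche, as the manufacturer recommends. The cells were collected approximately 48 hours after transfection, and membranes were then prepared.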

[5] = target: T4, human calcitonin receptor (Homo sapiens, UniProt P30988); assay: ASSAY (VII) binding to the human calcitonin receptor (SPA, 125I-Calcitonin); settings: read-out: hCTR bind IC50;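 further: cell membranes (35 ng/µL) combined with SPA beads in 40 µL of pH 7.4 Hepes buffer, 384-well format, signal counted on a TopCounter instrument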
T4 construct: expressed in transfected cells
T4 sequence (P30988 25-474): T1 sequence (P30988 25-474)

[6] = target: T5, rat calcitonin receptor (Rattus norvegicus, UniProt P32214); assay: ASSAY (VIII) binding to the rat calcitonin receptor; settings: Table 7, read-out: rCTR bind IC50
T5 construct: expressed in transfected cells; host or cells: BHK tk'ts 13 (transient, FuGENE 6), membranes
T5 sequence (P32214 25-479 isoform P32214-2 limits assumed): T3 sequence (P32214 25-479 isoform P32214-2 limits assumed)
Outline: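 Cell membranes for binding came from BHK tk′ts 13 cells harvested approximately 48 hours after transient transfection with the rat receptor.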

[7] = bistrispropane buffer, pH 6.5, read-out: Solubility pH 6.5 Concentration
[8] = bistrispropane buffer, pH 7.5, read-out: Solubility pH 7.5 Concentration
[9] = bistrispropane buffer, pH 6.0, read-out: Solubility pH 6.0 Concentration
[10] = bistrispropane buffer, pH 7.0, read-out: Solubility pH 7.0 Concentration
[11] = bistrispropane buffer, pH 8.0, read-out: Solubility pH 8.0 Concentration
[12] = glycylglycine buffer, pH 3.0, read-out: Solubility pH 3.0 Concentration
[13] = glycylglycine buffer, pH 4.0, read-out: Solubility pH 4.0 Concentration
[14] = glycylglycine buffer, pH 5.0, read-out: Solubility pH 5.0 Concentration
[15] = Table 5, selectivity, hCTR bind IC50 / hAmylin-R bind IC50
[16] = Table 5a, selectivity, hCTR bind IC50 / hAmylin-R bind IC50
[17] = Table 5b, selectivity, hCTR bind IC50 / hAmylin-R bind IC50
[18] = Table 7, human binding selectivity, included for comparison
[19] = Table 7a (preferred compounds), human binding selectivity, included for comparison
[20] = ratio of human calcitonin receptor binding IC50 to human amylin receptor binding IC50
[21] = Table 7, rat binding selectivity, rCTR IC50 / rAmylin-R IC50
[22] = Table 7a (preferred compounds), rat binding selectivity, rCTR IC50 / rAmylin-R IC50
[23] = ratio of rCTR bind IC50 to rAmylin-R bind IC50

EC50 [1] [nM]	solubility at 18 h [2, 7] [µM]	solubility at 18 h [2, 8] [µM]	solubility at 18 h [2, 9] [µM]	solubility at 18 h [2, 10] [µM]	solubility at 18 h [2, 11] [µM]	solubility at 18 h [2, 12] [µM]	solubility at 18 h [2, 13] [µM]	solubility at 18 h [2, 14] [µM]	IC50 [3] [nM]	Ratio hCT/hAmylin binding [3, 15]	Ratio hCT/hAmylin binding [3, 16]	Ratio hCT/hAmylin binding [3, 17]	Ratio hCT/hAmylin binding [3, 18]	Ratio hCT/hAmylin binding [3, 19]	IC50 ([4]; Table 7) [nM]	Ratio rCT/rAmylin binding [4, 21]	Ratio rCT/rAmylin binding [4, 22]	IC50 [5] [nM]	IC50 [6] [nM]	SMILES	other results
1.11	≥ 200	≥ 200	≥ 200	≥ 200	≥ 200	≥ 200	≥ 200	≥ 200	0.196	16.7	16.7	16.7	16.7	16.7	0.3	62.0	62.0	3.27	18.6	CC[C@H](C)[C@H](NC(=O)[C@H](C)NC(=O)CNC(=O)[C@H](Cc1ccccc1)NC(=O)[C@H](CC(N)=O)NC(=O)[C@@H]1CCCN1C(=O)[C@H](CO)NC(=O)[C@H](CO)NC(=O)[C@H](Cc1c[nH]cn1)NC(=O)[C@H](CCCNC(=N)N)NC(=O)[C@H](CC(C)C)NC(=O)[C@H](Cc1ccccc1)NC(=O)[C@H](CC(=O)O)NC(=O)[C@H](C)NC(=O)[C@H](CC(C)C)NC(=O)[C@H](CCCNC(=N)N)NC(=O)[C@H](CCC(N)=O)NC(=O)[C@@H](NC(=O)[C@H](C)NC(=O)[C@@H]1CSSC[C@H](NC(=O)[C@@H](N)CCCCNC(=O)CC[C@H](NC(=O)CCCCCCCCCCCCCCCCCCC(=O)O)C(=O)O)C(=O)N[C@@H](CC(N)=O)C(=O)N[C@@H]([C@@H](C)O)C(=O)N[C@@H](C)C(=O)N[C@@H]([C@@H](C)O)C(=O)N1)[C@@H](C)O)C(=O)N1CCC[C@H]1C(=O)N[C@@H](CO)C(=O)N[C@@H](CO)C(=O)N[C@H](C(=O)N[C@@H](CC(N)=O)C(=O)N[C@H](C(=O)NCC(=O)N1CCC[C@H]1C(=O)N[C@@H](CCC(=O)O)C(=O)N[C@H](C(=O)N[C@@H](Cc1ccc(O)cc1)C(N)=O)[C@@H](C)O)C(C)C)[C@@H](C)O [Example 123] (H-K([γGlu-C20 diacid])CNTATCATQRLADFLRHSSPNFGAIPSSTNVGPETY-NH2; disulfide 2-7; N-terminus assumed)	Ratio hCT/hAmylin binding [3, 20]: 16.7; Ratio rCT/rAmylin binding [4, 23]: 62.0
1.09	144 (≈ 659 µg/mL)	≥ 200	156 (≈ 714 µg/mL)	146 (≈ 668 µg/mL)	≥ 200	≥ 200	≥ 200	≥ 200	0.633	35.6	35.6	35.6	35.6	35.6	2.07	45.6	45.6	22.5	94.5	CC[C@H](C)[C@H](NC(=O)[C@H](C)NC(=O)CNC(=O)[C@H](Cc1ccccc1)NC(=O)[C@H](CC(N)=O)NC(=O)[C@@H]1CCCN1C(=O)[C@H](CO)NC(=O)[C@H](CO)NC(=O)[C@H](Cc1c[nH]cn1)NC(=O)[C@H](CCCNC(=N)N)NC(=O)[C@H](CC(C)C)NC(=O)[C@H](Cc1ccccc1)NC(=O)[C@H](CCC(=O)O)NC(=O)[C@H](C)NC(=O)[C@H](CC(C)C)NC(=O)[C@H](CCCNC(=N)N)NC(=O)[C@H](CCC(N)=O)NC(=O)[C@@H](NC(=O)[C@H](C)NC(=O)[C@@H]1CSSC[C@H](NC(=O)[C@@H](N)CCCCNC(=O)CC[C@H](NC(=O)CC[C@H](NC(=O)CCCCCCCCCCCCCCCCCCC(=O)O)C(=O)O)C(=O)O)C(=O)N[C@@H](CC(N)=O)C(=O)N[C@@H]([C@@H](C)O)C(=O)N[C@@H](C)C(=O)N[C@@H]([C@@H](C)O)C(=O)N1)[C@@H](C)O)C(=O)N1CCC[C@H]1C(=O)N[C@@H](CO)C(=O)N[C@@H](CO)C(=O)N[C@H](C(=O)N[C@@H](CC(N)=O)C(=O)N[C@H](C(=O)NCC(=O)N[C@@H](Cc1c[nH]cn1)C(=O)N[C@@H](CC(N)=O)C(=O)N[C@H](C(=O)N[C@@H](Cc1ccc(O)cc1)C(N)=O)[C@@H](C)O)C(C)C)[C@@H](C)O [Example 87] (H-K([γGlu-γGlu-C20 diacid])CNTATCATQRLAEFLRHSSPNFGAIPSSTNVGHNTY-NH2; disulfide 2-7)	Ratio hCT/hAmylin binding ([3]; Table 5c, selectivity, hCTR bind IC50 / hAmylin-R bind IC50): 35.6; Ratio hCT/hAmylin binding [3, 20]: 35.6; Ratio rCT/rAmylin binding [4, 23]: 45.6
0.372	≥ 200	≥ 200	≥ 200	≥ 200	≥ 200	≥ 200	≥ 200	≥ 200	0.97	2.3	–	–	2.3	2.3	0.514	14.3	14.3	2.18	7.35	CC[C@H](C)[C@H](NC(=O)[C@H](C)NC(=O)CNC(=O)[C@H](Cc1ccccc1)NC(=O)[C@H](CC(N)=O)NC(=O)[C@@H]1CCCN1C(=O)[C@H](CO)NC(=O)[C@H](CO)NC(=O)[C@H](Cc1c[nH]cn1)NC(=O)[C@H](CCCNC(=N)N)NC(=O)[C@H](CC(C)C)NC(=O)[C@H](Cc1ccccc1)NC(=O)[C@H](CCC(=O)O)NC(=O)[C@H](C)NC(=O)[C@H](CC(C)C)NC(=O)[C@H](CCCNC(=N)N)NC(=O)[C@H](CCC(N)=O)NC(=O)[C@@H](NC(=O)[C@H](C)NC(=O)[C@@H]1CSSC[C@H](NC(=O)[C@H](CCCCN)NC(=O)CC[C@H](NC(=O)CCCCCCCCCCCCCCCCCCC(=O)O)C(=O)O)C(=O)N[C@@H](CC(N)=O)C(=O)N[C@@H]([C@@H](C)O)C(=O)N[C@@H](C)C(=O)N[C@@H]([C@@H](C)O)C(=O)N1)[C@@H](C)O)C(=O)N1CCC[C@H]1C(=O)N[C@@H](CO)C(=O)N1CCC[C@H]1C(=O)N[C@H](C(=O)N[C@@H](CC(N)=O)C(=O)N[C@H](C(=O)NCC(=O)N[C@@H](CO)C(=O)N[C@@H](CC(N)=O)C(=O)N[C@H](C(=O)N[C@@H](Cc1ccc(O)cc1)C(N)=O)[C@@H](C)O)C(C)C)[C@@H](C)O [Example 37] ({C20 diacid-γGlu}-KCNTATCATQRLAEFLRHSSPNFGAIPSPTNVGSNTY-NH2; disulfide 2-7 (inferred))	–
